Article PMC7211202 (Investigational New Drugs, 2019)
Where “and” joins values, the source holds several entries; their conditions need not be identical. Equal entries are not always repeated. Entries after “also recorded” stand apart in the source; their conditions may differ.

What was measured:
[1] = test system: P53WT solid tumors or multiple myeloma; test: Tumor response (RECIST 1.1, Macdonald, IMWG criteria); type: in vivo, human
Protocol: Efficacy response was assessed using revised Response Evaluation Criteria in Solid Tumors (RECIST), version 1.1 [25] Macdonald criteria for GBM [26] or International Myeloma Working Group (IMWG) response criteria for multiple myeloma.

[2] = Dose-limiting toxicities and maximum tolerated dose; type: in vivo
Protocol: This open-label phase 1 study was conducted at 16 centers (ClinicalTrials.gov, NCT01723020). TP53 mutation status was confirmed by central laboratory assessment. The study was planned with two parts: a 3-part dose escalation (Part 1) and a dose expansion (Part 2). […] Intermediate doses were allowed when deemed appropriate. The dose expansion was planned for patients with MDM2-amplified tumors (group 1; liposarcomas, GBM, and other solid tumors), potentially MDM2-overexpressing tumors (group 2; ER+ metastatic breast cancer), or multiple myeloma (group 3).
Each patient was monitored for 21 days for the occurrence of dose-limiting toxicities (DLTs), defined as febrile neutropenia, neutropenic infection, grade 4 neutropenia lasting >7 days, grade ≥ 3 thrombocytopenia lasting >7 days (solid tumors only), grade 3 thrombocytopenia with grade ≥ 2 bleeding (solid tumors only), grade 3 or 4 thrombocytopenia with grade > 1 bleeding (multiple myeloma only), grade 4 thrombocytopenia (solid tumors only), or grade 4 thrombocytopenia lasting >14 days (multiple myeloma only), or as grade ≥ 3 nausea, vomiting, or diarrhea after support; grade 3 fatigue lasting >7 days; any other grade ≥ 3 adverse event (AE); grade ≥ 3 kidney injury (multiple myeloma only), or treatment-related AEs not returning to grade ≤ 1 (solid tumors only) per Common Terminology Criteria for Adverse Events (CTCAE), version 4.0. […] Treatment continued until disease progression, intolerable toxicity, or withdrawal of consent.

[3] = 240-mg dose expansion, ER + PR+ breast cancer
[4] = 240-mg dose expansion, ER + PR– breast cancer
[5] = 240-mg dose expansion, breast cancer
[6] = 240-mg dose expansion, multiple myeloma
[7] = 240-mg dose expansion, other solid tumors

SMILES: CC(C)[C@@H](CS(=O)(=O)C(C)C)N1C(=O)[C@@](C)(CC(=O)O)C[C@H](c2cccc(Cl)c2)[C@H]1c1ccc(Cl)cc1 [AMG 232]
- Stable disease as a best result ([1]; 240-mg dose expansion, DDLPS): 7 of 10
- median duration of stable disease ([1]; 240-mg dose expansion, DDLPS): 2.0 months
- duration of stable disease, range [1, 3]: 0.9–4.0 months
- median duration of stable disease [1, 3]: 2.0 months
- duration of stable disease, range [1, 4]: 0.9–3.8 months
- median duration of stable disease [1, 4]: 1.4 months
- Stable disease as a best result ([1]; 240-mg dose expansion, GBM): six of 10 and 6 of 10
- median duration of stable disease ([1]; 240-mg dose expansion, GBM): 1.8 months
- duration of stable disease, range ([1]; 240-mg dose expansion, WDLPS): 1.9–6.1 months
- median duration of stable disease ([1]; 240-mg dose expansion, WDLPS): 3.9 months
- Stable disease as a best result [1, 5]: 7 of 12
- duration of stable disease, range [1, 5]: 1.7–4.0 months
- median duration of stable disease [1, 5]: 1.4–2.0 months and 2.0 months
- Stable disease as a best result [1, 6]: 5 of 10
- duration of stable disease, range [1, 6]: 1.2–2.0 months
- Stable disease as a best result [1, 7]: 10 of 16
- median duration of stable disease [1, 7]: 3.3 months
- Patients with progressive disease ([1]; 240-mg dose expansion, overall): 15 (22%) n (%)
- Patients with stable disease ([1]; 240-mg dose expansion, overall): 45 (66%) n (%)
- duration of stable disease, range ([1]; 240-mg dose expansion, overall): 0.5–12.9 months
- median duration of stable disease ([1]; 240-mg dose expansion, overall): 2.0 months
- Patients with unconfirmed partial responses ([1]; central evaluation): 4%
- Duration of unconfirmed partial response ([1]; central evaluation, patient with WDLPS): 2.4 months
- Duration of unconfirmed partial response ([1]; central evaluation, patient with breast cancer): 2.0 months
- Duration of unconfirmed partial response ([1]; central evaluation, patient with squamous cell carcinoma): 0.1 months
- Patients with stable disease ([1]; dose escalation): 31 (80%) n (%)
- duration of stable disease, range ([1]; dose escalation): 0.7–22.4 mo
- median duration of stable disease ([1]; dose escalation): 3.1 months
- Patients with non-complete response/non-progressive disease ([1]; dose escalation, based on non-target lesions): 2 (5%) n (%)
- Objective responses ([1]; local evaluation, dose escalation and expansion): no responses; also recorded: no objective response
- DLT observed ([2]; 120-mg cohort, patient with esophageal cancer): grade 3 thrombocytopenia on day 15 that worsened to grade 4 on day 17
- Additional patients with cytopenias (grade 4 neutropenia; grade 4 thrombocytopenia) outside of the 21-day DLT evaluation window ([2]; 300-mg cohort): Two
- DLT observed ([2]; 360-mg cohort, patient with rectal cancer): grade 4 thrombocytopenia on day 28
- DLT observed ([2]; 480-mg cohort, patient with head and neck cancer): grade 3 neutropenia on day 22 that delayed treatment in the next cycle
- highest safe and tolerable dose ([2]; DLTs and delayed cytopenias considered, QD 7 days Q3W): 240 mg
- MTD (protocol-specified definition using DLTs incidence) ([2]; QD for 7 days Q3W, doses up to 480 mg): not reached
- Patients with DLTs ([2]; dose escalation): Three
